These molecules were tested against T1, human vasopressin V1a receptor subtype (Homo sapiens, UniProt P37288) (assay: Vasopressin binding in Chinese Hamster Ovary cell membranes expressing human vasopressin V1a subtype receptors). Conditions: 100 nM, CHO cell membranes, [3H]Manning ligand, values without parentheses.
T1 construct: host or cells: CHO cells (pZeoSV vector for the Thibonnier line)
Procedure: Vasopressin Binding in Chinese Hamster Ovary Cell Membranes Expressing Human Vasopressin V1a Subtype Receptors
The trypsin is removed by aspiration and the cells dislodged by tapping. Cell Culture medium (e.g. 30 mL for 1:30 split) is immediately added and mixed well to inactivate trypsin. 1 mL of detached cells is added to new culture flasks containing fresh cell culture medium (e.g., into 25 mL per T-150 flask), and mixed gently. The cells are incubated at 37° C. in 5% CO2. The medium is changed at 3 to 4 days interval (or as appropriate). […] All steps are done under sterile conditions. B. Membrane Preparation: The cells are washed twice gently with Hank's Balanced Salt solution (e.g,. use 10 mL per T-150 flask). […] The contents are transferred to centrifuge tubes (50 mL) kept in an ice bath. All subsequent steps are done at 4° C. The tubes are centrifuged at 300×g for 15 min (1380 rpm on SORVAL, Model RT6000D, using the rotor for 50 mL tubes). The supernatant is discarded and the cells suspended in homogenizing buffer(10 mM Tris-HCl containing 0.25 M sucrose and 1 mM EDTA, pH 7.4) ensuring that the volume of the buffer is about ten times the volume of the cell pellet. The cells are pooled into a centrifuge tube (50 mL) and homogenized with a Polytron at setting 6 for 10 sec. The homogenate is transferred into a Potter-Elvjehm homogenizer and homogenized with 3 strokes. The homogenate is centrifuged at 1500×g for 10 min at 4° C. (3100 rpm using SORVAL, model RT6000D, using the rotor for 50 mL tubes). The pellet is discarded. The supernatant is centrifuged at 100,000×g for 60 min. at 4° C. (Beckman L8-80M ultracentrifuge; spin at 37,500 rpm with rotor type 70 Ti for 50 mL tubes; 38,000 rpm with type 80Ti for 15 mL tubes; or 35,800 rpm with rotor type 45Ti). The supernantant is discarded and the pellet suspended in 3 to 4 mL of Tris buffer (50 mM TRIS-HCl, pH 7.4). The protein content is estimated by the Bradford or Lowry method. The volume of the membrane suspension is adjusted with the membrane buffer (50 mM Tris-HCl containing 0.1% BSA and 0.1 mM PMSF) to give 3.0 mg/mL (or as appropriate) of protein. The membranes are aliquoted and stored at −70° C. C. Radioligand Binding Assay: In wells of a 96-well format microtiter plate, is added 90, 110 or 130 μL (to make up a final volume of 200 μL) of assay buffer containing 50 mM of Tris-HCl (pH 7.4), BSA (heat inactivated, protease-free), […], 1 mg % aprotinin, 1 mg % leupeptin, 2 mg % 1,10-phenanthroline, 10 mg % trypsin inhibitor, and 0.1 mM PMSF. The inhibitors are added on the day of the experiment. The components are mixed at room temperature, and then kept in ice bath following adjustment of the pH to 7.4. […] 20 μL of 50% DMSO is added for Manning and other peptide ligands and the assay buffer volume is adjusted accordingly. To each well is added 50 μL of frozen membrane suspension thawed immediately prior to use and diluted in the assay buffer to the required concentration (equivalent to 25 to 50 μg of protein/well as needed). 20 μL of 8 nM [^3H]Manning ligand in the assay buffer, prepared just before use, is added, and incubated at room temperature for 60 min. shaking the plate on a mechanical shaker for the first 15 min. The incubation is stopped by rapid filtration of the plate contents followed by wash with ice-cold buffer (50 mM Tris-HCl, pH 7.4) using a cell harvester (Tomtek and Printed filtermat-B filter paper). The filter paper is thoroughly dried (7–12 min. in a microwave oven) and impregnated with MeltiLex B/H melt-on scintillation wax sheets and the radioactivity counted in a betaplate scintillation counter.
Binding data is either reported as percent inhibition at a certain concentration or if an IC50 was calculated, as a nanomolar concentration.

T1 sequence (P37288 whole entry): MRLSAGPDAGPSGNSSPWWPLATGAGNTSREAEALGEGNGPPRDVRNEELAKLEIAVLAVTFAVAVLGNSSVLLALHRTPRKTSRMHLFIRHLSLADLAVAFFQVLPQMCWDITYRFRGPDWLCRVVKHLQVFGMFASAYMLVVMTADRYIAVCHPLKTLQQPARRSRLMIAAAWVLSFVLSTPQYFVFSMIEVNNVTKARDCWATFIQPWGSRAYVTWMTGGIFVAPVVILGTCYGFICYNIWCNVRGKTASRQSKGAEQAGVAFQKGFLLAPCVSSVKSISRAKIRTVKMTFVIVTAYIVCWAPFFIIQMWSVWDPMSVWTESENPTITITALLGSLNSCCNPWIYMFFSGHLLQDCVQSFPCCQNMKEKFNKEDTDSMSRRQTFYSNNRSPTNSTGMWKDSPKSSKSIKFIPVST

Row | Structure (SMILES) | V1a % inhibition @ 100 nM [%] | inhibition at 0.1 µM [%]
1 | CN(C)[C@@H]1CCN(C(=O)c2ccc3n2Cc2ccccc2N(C(=O)c2ccc(-c4cccc5ccccc45)cc2Cl)C3)C1 [Example 277, {10-[2-Chloro-4-(1-naphthyl)benzoyl]-10,11-dihydro-5H-pyrrolo[2,1-c][1,4]benzodiazepin-3-yl}[(3R)-3-(dimethylamino)pyrrolidinyl]methanone] | 8 | 
2 | COc1ccccc1-c1ccc(C(=O)N2Cc3ccc(C(=O)N4CCC(N5CCCCC5)CC4)n3Cc3ccccc32)cc1C [Example 112, {10-[(2-Methyl-2′-methoxy[1,1′-biphenyl]-4-yl)carbonyl]-10,11-dihydro-5H-pyrrolo[2,1-c][1,4]benzodiazepin-3-yl}[4-(1-piperidinyl)-1-piperidinyl]methanone] |  | 8
3 | COc1cccc(-c2ccc(C(=O)N3Cc4ccc(C(=O)N5CCC(N6CCCCC6)CC5)n4Cc4ccccc43)cc2C)c1 [Example 114, {10-[(2-Methyl-3′-methoxy[1,1′-biphenyl]-4-yl)carbonyl]-10,11-dihydro-5H-pyrrolo[2,1-c][1,4]benzodiazepin-3-yl}[4-(1-piperidinyl)-1-piperidinyl]methanone] |  | 11
4 | COc1cccc(-c2ccc(C(=O)N3Cc4ccc(C(=O)N5CCC[C@H]5CN5CCCC5)n4Cc4ccccc43)cc2OC)c1 [Example 270, {10-[(2,3′-Dimethoxy[1,1′-biphenyl]-4-yl)carbonyl]-10,11-dihydro-5H-pyrrolo[2,1-c][1,4]benzodiazepin-3-yl}[(2S)-2-(1-pyrrolidinylmethyl)pyrrolidinyl]methanone] | 40 | 
5 | COc1cccc(-c2cc(OC)c(C(=O)N3Cc4ccc(C(=O)N5CCN(CCN6CCOCC6)CC5)n4Cc4ccccc43)cc2Cl)c1 [Example 212, {10-[(6-Chloro-3,3′-dimethoxy[1,1′-biphenyl]-4-yl)carbonyl]-10,11-dihydro-5H-pyrrolo[2,1-c][1,4]benzodiazepin-3-yl}{4-[2-(4-morpholinyl)ethyl]-1-piperazinyi}methanone] | 35 | 
6 | COc1cccc(-c2ccc(C(=O)N3Cc4ccc(C(=O)N(C)CCCN(C)C)n4Cc4ccccc43)cc2OC)c1 [Example 108, 10-[(2,3′-Dimethoxy[1,1′-biphenyl]-4-yl)carbonyl]-N-[3-(dimethylamino)propyl]-N-methyl-10,11-dihydro-5H-pyrrolo[2,1-c][1,4]benzodiazepine-3-carboxamide] |  | 52
7 | COc1cc(-c2ccccc2C)c(Cl)cc1C(=O)N1Cc2ccc(C(=O)N3CCC[C@H]3CN3CCCC3)n2Cc2ccccc21 [Example 267, {10-[(6-Chloro-3-methoxy-2′-methyl[1,1′-biphenyl]-4-yl)carbonyl]-10,11-dihydro-5H-pyrrolo[2,1-c][1,4]benzodiazepin-3-yl}[(2S)-2-(1-pyrrolidinylmethyl)pyrrolidinyl]methanone] | 12 | 
8 | COc1cc(C(=O)N2Cc3ccc(C(=O)N(C)CCCN(C)C)n3Cc3ccccc32)ccc1-n1c(C)ccc1C [Example 310, N-[3-(Dimethylamino)propyl]-10-[4-(2,5-dimethyl-i H-pyrrol-1-yl)-3-methoxybenzoyl]-N-methyl-10,11-dihydro-5H-pyrrolo[2,1-c][1,4]benzodiazepine-3-carboxamide] | 4 | 
9 | COc1cc2c(cc1OC)N(C(=O)c1ccc(-c3ccccc3C(F)(F)F)c(C)c1)Cc1ccc(C(=O)N(C)CCCN(C)C)n1C2.Cl [Example 13, N-Methyl-[N-(3-dimethylamino)propyl]-7,8-dimethoxy-10-{[2-methyl-2′-(trifluoromethyl)[1,1′-biphenyl]-4-yl]carbonyl}-10,11-dihydro-5H-pyrrolo[2,1-c][1,4]benzodiazepine-3-carboxamide hydrochloride salt] | 4 | 
10 | COc1ccccc1-c1ccc(C(=O)N2Cc3ccc(C(=O)N4CC[C@@H](N(C)C)C4)n3Cc3ccccc32)cc1OC [Example 282, {10-[(2,2′-Dimethoxy[1,1′-biphenyl]-4-yl)carbonyl]-10,11-dihydro-5H-pyrrolo[2,1-c][1,4]benzodiazepin-3-yl][(3R)-3-(dimethylamino)pyrrolidinyl]methanone] | 1 | 
11 | COc1cccc(-c2ccc(C(=O)N3Cc4ccc(C(=O)NCCCn5ccnc5)n4Cc4ccccc43)cc2C)c1 [Example 125, N-[3-(1H-Imidazol-1-yl)propyl]-10-[(3′-methoxy-2-methyl[1,1′-biphenyl]-4-yl)carbonyl]-10,11-dihydro-5H-pyrrolo[2,1-c][1,4]benzodiazepine-3-carboxamide] |  | 10
12 | COc1ccccc1-c1ccc(C(=O)N2Cc3ccc(C(=O)N4CC[C@@H](N(C)C)C4)n3Cc3ccccc32)cc1 [Example 279, [(3R)-3-(Dimethylamino)pyrrolidinyl]{10-[(2′-methoxy[1,1′-biphenyl]-4-yl)carbonyl]-10,11-dihydro-5H-pyrrolo[2,1-c][1,4]benzodiazepin-3-yl}methanone] | 39 | 
13 | COc1ccccc1-c1ccc(C(=O)N2Cc3ccc(C(=O)N(C)CCCN(C)C)n3Cc3ccccc32)cc1OC [Example 107, 10-[(2,2′-Dimethoxy[1,1′-biphenyl]-4-yl)carbonyl]-N-[3-(dimethylamino)propyl]-N-methyl-10,11-dihydro-5H-pyrrolo[2,1-c][1,4]benzodiazepine-3-carboxamide] |  | 15
14 | Cc1ccccc1-c1ccc(C(=O)N2Cc3ccc(C(=O)N4CC[C@@H](N(C)C)C4)n3Cc3ccccc32)cc1C [Example 274, [(3R)-3-(Dimethylamino)pyrrolidinyl]{10-[(2,2′-dimethyl[1,1′-biphenyl]-4-yl)carbonyl]-10,11-dihydro-5H-pyrrolo[2,1-c][1,4]benzodiazepin-3-yl}methanone] | 90 | 
15 | COc1ccccc1-c1ccc(C(=O)N2Cc3ccc(C(=O)N4CCC[C@H]4CN4CCCC4)n3Cc3ccccc32)cc1OC [Example 269, {10-[(2,2′-Dimethoxy[1,1′-biphenyl]-4-yl)carbonyl]-10,11-dihydro-5H-pyrrolo[2,1-c][1,4]benzodiazepin-3-yl}[(2S)-2-(1-pyrrolidinylmethyl)pyrrolidinyl]methanone] | −1 | 
16 | COc1cc(C(=O)N2Cc3ccc(C(=O)N4CCC(N5CCCCC5)CC4)n3Cc3ccccc32)ccc1-c1ccccc1C [Example 116, {10-[(2-Methoxy-2′-methyl[1,1′-biphenyl]-4-yl)carbonyl]-10,11-dihydro-5H-pyrrolo[2,1-c][1,4]benzodiazepin-3-yl}[4-(1-piperidinyl)-1-piperidinyl]methanone] |  | 42
17 | Cc1cc(C(=O)N2Cc3ccc(C(=O)N4CCC(N5CCCCC5)CC4)n3Cc3ccccc32)ccc1-c1ccccc1C(F)(F)F [Example 122, {10-[(2-Methyl-2′-(trifluoromethyl) -[1,1′-biphenyl]-4-yl)carbonyl]-10,11-dihydro-5H -pyrrolo[2,1-c][1,4]benzodiazepin-3-yl}[4-(1-piperidinyl)-1-piperidinyl]methanone] |  | 8
18 | COc1cccc(-c2ccc(C(=O)N3Cc4ccc(C(=O)N5CCC(N6CCCC6)CC5)n4Cc4ccccc43)cc2OC)c1 [Example 146, {10-[(2,3′-Dimethoxy[1,1′-biphenyl]-4-yl)carbonyl]-10,11-dihydro-5H-pyrrolo[2,1-c][1,4]benzodiazepin-3-yl}[4-(1-pyrrolidinyl)-1-piperidinyl]methanone] |  | 37

Reference: patent publication US7109193B2, “Tricyclic diazepines tocolytic oxytocin receptor antagonists” (Wyeth, priority 2001, dated 2006)
